The values below come from the Deep4Chem optical property database.

This data set can be described thus: solvent given as SMILES.
Setting [1] is: in c1cc(-c2cccc(-n3c4ccccc4c4ccccc43)c2)cc(-n2c3ccccc3c3ccccc32)c1.

Regarding `O=C1c2ccccc2-c2cccc(O)c21`, the fluorescence lifetime is, setting by setting: (in C1CCCCC1) 1.24 ns; (in C1COCCO1) 3.38 ns; (in CC#N) 9.67 ns; (in CC(C)O) 5.5 ns; (in CCCCO) 5.22 ns; (in CCCO) 4.82 ns. The fluorescence lifetime (in CCO) turned out to be 4.85 ns, the fluorescence lifetime (in CCOC(C)=O) came to 5.48 ns, the fluorescence lifetime (in CCOCC) worked out at 2.39 ns and the fluorescence lifetime (in CO) turned out to be 3.61 ns.
In turn, `CCOC(=O)c1c(CSc2ccccc2)n(C)c2cc(Br)c(O)c(CN(C)C)c12` displayed a fluorescence lifetime (in O) of 3 ns.
Turning to `N#C/C(=C\c1ccc(C#N)cc1)c1nc(-c2ccccc2)c(-c2ccccc2)s1`, the fluorescence lifetime (in CC#N) stood at 3.2 ns.
In the case of `COc1c2ccccc2c(OC)c2c1c1cc(F)ccc1n2C`, the fluorescence lifetime runs as follows: (in C1CCCCC1) 25 ns; (in CC#N) 25.3 ns; (in CO) 26.7 ns; (in ClCCl) 23.2 ns.
For the setting “in CC#N”, `O=C(O)c1ccc(-c2ccc(-c3nc(-c4ccccc4)c4ccccn34)cc2)s1` had a fluorescence lifetime of 1.5 ns.
On to `COc1ccc(C#Cc2ccc(C#Cc3ccc(P(=O)(c4ccc(C#Cc5ccc(C#Cc6ccc(OC)cc6)cc5)cc4)c4ccc(C#Cc5ccc(C#Cc6ccc(OC)cc6)cc5)cc4)cc3)cc2)cc1`, for which the fluorescence lifetime reads like this: (in C1CCCCC1) 0.58 ns; (in C1COCCO1) 0.69 ns; (in CC#N) 1.14 ns; (in CCO) 1.02 ns; (in CS(C)=O) 1.24 ns; (in ClC(Cl)Cl) 0.74 ns. The compound also displayed a fluorescence lifetime (in ClCCl) of 0.85 ns.
Turning to `Cc1c(OCC(=O)O)cc2c3c([nH]c2c1C)C(=O)CCC3`, the fluorescence lifetime is, setting by setting: (in C1COCCO1) 0.54 ns; (in CC#N) 0.97 ns; (in CCO) 1.52 ns; (in CS(C)=O) 2.34 ns; (in Cc1ccccc1) 0.52 ns; (in O) 1.77 ns.
In the case of `Cc1cc(-n2c3ccccc3c3ccccc32)c(-n2c3ccccc3c3ccccc32)cc1C#N`, the fluorescence lifetime reads like this: under setting [1], 14.6 ns; (in c1ccc2c(c1)c1ccccc1n2-c1ccc2sc3ccc(-n4c5ccccc5c5ccccc54)cc3c2c1) 26.4 ns; (in c1ccc2c(c1)c1ccccc1n2-c1ccc2sc3ccc(-n4c5ccccc5c5cccnc54)cc3c2c1) 15.8 ns; (in c1ccc2c(c1)c1cccnc1n2-c1ccc2sc3ccc(-n4c5ccccc5c5cccnc54)cc3c2c1) 19.5 ns.
Under “in Cc1ccccc1”, `CCCCC(CC)CN1C(=O)c2cc(Oc3ccc(C(C)(C)C)cc3)c3c4c(Oc5ccc(OC)cc5)cc5c6c(cc(Oc7ccc(OC)cc7)c(c7c(Oc8ccc(C(C)(C)C)cc8)cc(c2c37)C1=O)c64)C(=O)N(c1c(C(C)C)cccc1C(C)C)C5=O` (configuration not stated) registered a fluorescence lifetime of 5.25 ns.
For the compound `O=C1c2ccc(-c3ccc(N(c4ccccc4)c4ccccc4)cc3)cc2C(=O)c2ccc(-c3ccc(N(c4ccccc4)c4ccccc4)cc3)cc21`, the fluorescence lifetime reads like this: (in Cc1ccccc1) 9 ns; (in c1ccc2c(c1)c1ccccc1n2-c1ccc(-c2ccc(-n3c4ccccc4c4ccccc43)cc2)cc1) 10.2 ns.
Turning to `c1ccc2c(c1)CCc1ccccc1N2c1c2ccccc2c(N2c3ccccc3CCc3ccccc32)c2ccccc12`, the fluorescence lifetime (in Cc1ccccc1) was determined as 34 ns.
For the compound `CC1(C)c2ccccc2N(c2ccc(-c3ccc4c(c3)c3cc(-c5ccc(N6c7ccccc7C(C)(C)c7ccccc76)cc5)ccc3c3nc(C#N)c(C#N)nc43)cc2)c2ccccc21`, the fluorescence lifetime (in O=P(c1ccccc1)(c1ccccc1)c1cccc(-c2cc(-n3c4ccccc4c4ccccc43)cc(-n3c4ccccc4c4ccccc43)c2)n1) was determined as 53.6 ns.
Compound `CC(C)(C)c1ccc2c(c1)sc1[n+]2[B-](F)(F)n2c(c3cccc4cccc2c43)=C1C#N` displayed a fluorescence lifetime (in ClCCl) of 6 ns.
As to `CCCCCCC(CCCCCC)N1C(=O)c2cccc3c(-c4ccc(OC)cc4)ccc(c23)C1=O`, the fluorescence lifetime is, setting by setting: (in CCCCCC) 2.65 ns; (in CCCCCCCCCCCCCC) 3.12 ns; (in CCCCCCCCCCCO) 4.78 ns; (in CCCCO) 5.18 ns; (in CN(C)C=O) 5.24 ns; (in Cc1ccccc1) 3.5 ns. The compound also had a fluorescence lifetime (in ClC(Cl)Cl) of 4.11 ns.
Turning to `CC(C)(C)NC(=O)c1c([Si](C)(C)C)cc2ccc3cccc4ccc1c2c34`, under “in ClC(Cl)Cl”, the fluorescence lifetime was found to be 6.53 ns.
As to `COc1ccc(-c2ccc(-c3ccc(C#N)s3)s2)cc1`, the fluorescence lifetime (in C1CCCCC1) came to 0.23 ns; the fluorescence lifetime (in C1COCCO1) turned out to be 0.38 ns; the fluorescence lifetime (in CC#N) turned out to be 0.97 ns; the fluorescence lifetime (in CC(C)O) came out at 0.89 ns; the fluorescence lifetime (in CCCCO) came to 0.91 ns; the fluorescence lifetime (in CCO) stood at 0.93 ns. The fluorescence lifetime reads like this: (in CCOC(C)=O) 0.44 ns; (in CN(C)C=O) 1.44 ns; (in CO) 1.06 ns; (in CS(C)=O) 1.76 ns; (in Cc1ccccc1) 0.34 ns; (in ClC(Cl)Cl) 0.6 ns. Moreover, the fluorescence lifetime stood at 0.74 ns (in ClCCl) and 0.91 ns (in O).
Under “in CC#N”, `O=c1oc2ccccc2cc1/C=C/c1ccc([N+](=O)[O-])cc1` displayed a fluorescence lifetime of 0.08 ns.
`Nc1ccc2[nH]ncc2c1`: the fluorescence lifetime by setting is: (in C1CCCCC1) 4.9 ns; (in CC#N) 4.7 ns; (in CO) 6.4 ns; (in O) 12.5 ns.
Under “in CO”, `CC1(C)C(/C=C/C2=C(Oc3ccc(CCN=C=S)cc3I)C(=C/C=C3/N(CCCS(=O)(=O)[O-])c4ccccc4C3(C)C)/CCC2)=[N+](CCCS(=O)(=O)[O-])c2ccccc21` registered a fluorescence lifetime of 0.947 ns.
As to `Cn1nc(-c2ccccc2)c2n[nH]nc2/c1=N\c1ccccn1`, the fluorescence lifetime runs as follows: (in CC#N) 0.33 ns; (in CCO) 0.44 ns; (in Cc1ccccc1) 0.34 ns.
As for `COc1ccc(C#Cc2ccc(C#N)cc2)cc1OC`, the fluorescence lifetime runs as follows: (in C1COCCO1) 1.09 ns; (in CC#N) 2.03 ns; (in CCCCCC) 0.37 ns; (in CCCCCCC) 0.38 ns; (in CCCO) 0.95 ns; (in CCOC(C)=O) 1 ns. Moreover, the fluorescence lifetime reads like this: (in CS(C)=O) 2.51 ns; (in ClC(Cl)Cl) 0.89 ns; (in ClCCl) 1.25 ns.
In the case of `Cc1cc(=O)[nH]c(=O)[nH]1`, the fluorescence lifetime (in CC#N) is 0.0001 ns.
The compound `O=[N+]([O-])c1ccc([N+]2=Cc3ccc4ccccc4c3O[B-]2(F)F)cc1` gave a fluorescence lifetime (in ClCCl) of 7.6 ns.
In the case of `c1ccc(-c2cnc3nn4ccccc4c3n2)cc1`, the fluorescence lifetime (in C1CCOC1) was found to be 5.3 ns.
For the compound `Cn1c2ccc(S(=O)(=O)Cl)cc2c(=O)c2cc(S(=O)(=O)Cl)ccc21`, the fluorescence lifetime (in CS(C)=O) was 10.6 ns.
Consider `COc1ccc2ccc([O-])cc2c1`, for which the fluorescence lifetime (in O) amounted to 4 ns.
Compound `Cc1ccc2c(c1)c(=O)c1ccccc1n2CCCCCC(=O)O` yielded a fluorescence lifetime (in O) of 15.1 ns.
Take `Cc1nc2c(ccc3ccccc32)oc1=O`: the fluorescence lifetime (in c1ccccc1) came to 1.5 ns.
The compound `Fc1c(F)c(-n2c3ccccc3c3ccccc32)c(F)c(F)c1-c1nnc(-c2ccccc2)o1` registered a fluorescence lifetime (in Cc1ccccc1) of 6.7 ns.
Turning to `Cc1cc(=O)oc2cc3c(cc12)c1c2ccccc2c2ccccc2c1c1c2ccccc2c2ccccc2c31`, the fluorescence lifetime (in ClC(Cl)Cl) was 10.7 ns.
As to `N#Cc1cnc(-c2c3ccccc3c(-c3ncc(C#N)cn3)c3ccccc23)nc1`, the fluorescence lifetime by setting is: (in CCO) 2.5 ns; (in ClCCl) 5.6 ns.
`Cc1ccc(O)c(-c2nc(C)c3n2CCCC3)c1` displayed a fluorescence lifetime (in ClCCl) of 2.3 ns.
Compound `[O-]c1ccccc1/C=N/c1ccccc1/N=C/c1ccccc1[O-]` returned a fluorescence lifetime (in C1CCOC1) of 0.0036 ns.
The compound `Cc1ccc(-c2ccc(/C=C/c3ccc(F)cc3)cn2)nc1` gave a fluorescence lifetime (in CC#N) of 0.99 ns.
`O=c1c2ccccc2n2c3ccc(-c4ccccc4)cc3c(=O)c3cccc1c32` registered a fluorescence lifetime under setting [1] of 5.5 ns and a fluorescence lifetime (in c1cc(-n2c3ccccc3c3ccccc32)cc(-n2c3ccccc3c3ccccc32)c1) of 5.5 ns.
`O=S(=O)([O-])c1cc(S(=O)(=O)Cl)ccc1C1=c2cc3c4c(c2Oc2c1cc1c5c2CCCN5CCC1)CCC[N+]=4CCC3` showed a fluorescence lifetime (in O) of 4.2 ns.
`CC(C)(C)c1ccc2c(c1)c1cc(C(C)(C)C)ccc1n2-c1ccc(C#Cc2ccc3c4ccc(C#Cc5ccc(/C=C(/C#N)C(=O)O)cc5)cc4n(-c4ccc(C(F)(F)F)cc4)c3c2)cc1`: the fluorescence lifetime (in ClCCl) is 1.27 ns.
For the compound `O=Cc1ccc(C#CC(C#Cc2ccc(C=O)s2)=Cc2ccc(C=C(C#Cc3ccc(C=O)s3)C#Cc3ccc(C=O)s3)cc2)s1`, the fluorescence lifetime (in ClC(Cl)Cl) is 0.8 ns.
`CC(C)c1cc(C(C)C)c(B2c3cc(-n4c5ccc(C(C)(C)C)cc5c5cc(C(C)(C)C)ccc54)ccc3N(c3ccccc3)c3ccc(-n4c5ccc(C(C)(C)C)cc5c5cc(C(C)(C)C)ccc54)cc32)c(C(C)C)c1` came in with a fluorescence lifetime under setting [1] of 15 ns.
With `c1ccc([B-]2(c3ccccc3)Oc3ccc4ccccc4c3-c3c4ccccc4cn[n+]32)cc1`, the fluorescence lifetime (in Cc1ccccc1) is 9.32 ns.
As to `c1ccc(-c2nc(-c3ccc(-c4nc(-c5ccccc5)c(-c5ccccc5)o4)cc3)oc2-c2ccccc2)cc1`, the fluorescence lifetime (in C1COCCO1) amounted to 1.03 ns.
As for `Cc1c(C(=O)c2ccccc2)c2ccc3cccc4c5cccc6ccc1c(c65)c2c34`, the fluorescence lifetime (in ClCCl) is 2.37 ns.
`C(=C\c1ccc(N(c2ccc(/C=C/c3ccc(N(c4ccccc4)c4ccccc4)cc3)cc2)c2ccc(/C=C/c3ccc(/C=C/c4ccc(N(c5ccc(/C=C/c6ccc(N(c7ccccc7)c7ccccc7)cc6)cc5)c5ccc(/C=C/c6ccc(N(c7ccccc7)c7ccccc7)cc6)cc5)cc4)c4nsnc34)cc2)cc1)/c1ccc(N(c2ccccc2)c2ccccc2)cc1`: the fluorescence lifetime is 1.83 ns (in C1CCOC1); 1.85 ns (in CCOC(C)=O); 3.61 ns (in Cc1ccccc1); 2.08 ns (in ClC(Cl)Cl); 1.86 ns (in ClCCl).
With `CC(C)(C)NS(=O)(=O)c1ccc2c(c1)C(=O)/C(=C1\Sc3ccc(S(=O)(=O)NC(C)(C)C)cc3C1=O)S2`, the fluorescence lifetime was determined as 12.4 ns (in C1COCCO1), 8.33 ns (in CN(C)C=O) and 0.07 ns (in CS(C)=O).
The compound `O=C(O)c1ccc(-c2nc(-c3ccccc3)c3ccccn23)cc1` showed a fluorescence lifetime (in CC#N) of 1.5 ns.
